Reference: PMC4193777 (PLoS ONE, 2014)

Key:
[1] = system: desensitized FPR2; assay: PAF-induced cross-talk reactivation of desensitized FPR2 (superoxide); format: cell-based, human
Method: Human peripheral blood neutrophils were isolated from buffy coats from healthy blood donors using dextran sedimentation and Ficoll-Paque gradient centrifugation as described. The remaining erythrocytes were disrupted by hypotonic lysis, the neutrophils were washed twice, resuspended in KRG, and stored on melting ice until use. This isolation procedure permits cells to be purified with minimal granule mobilization.
The NADPH-oxidase activity was determined using isoluminol-enhanced chemiluminescence (CL), [27]. The CL activity was measured in a six-channel Biolumat LB 9505 (Berthold Co., Wildbad, Germany), using disposable 4-ml polypropylene tubes with a 900 µl reaction mixture containing 10^5 cells, isoluminol (2×10^−5 M) and HRP (2 U). The tubes were equilibrated in the Biolumat for 5 min at 37°C, after which the stimulus (100 µl) was added and the light emission was recorded continuously. Receptor desensitized cells were defined as naïve (non-desensitized) cells that had first been stimulated with a receptor specific agonist and returned to baseline after the resulting release of superoxide before a second stimulation. When reactivation experiments were performed with antagonists, the antagonists were added to the CL reaction mixture 1 min before the second stimulation. For studies with signaling inhibitors, cells were incubated with inhibitors at 37°C for 15 min before agonist addition. Control cells received no treatment but were incubated under the same conditions.
Figure 3 PAF- or ATP-stimulation induces reactivation of desensitized FPR2. […] A representative experiment is shown and the time point for addition of FPR2 agonists is indicated by the first arrow, the time point for PAF stimulation (100 nM final concentration) with the second arrow. The control PAF response induced in naïve (non-desensitized) neutrophils is shown for comparison (dotted line). Abscissa: Time of study (min); ordinate: Superoxide production (Mcpm). B. Naïve neutrophils were first desensitized with F2Pal10 (F2Pal10des., 500 nM final concentration) and subsequently stimulated with PAF (100 nM final concentration; time point for PAF addition is indicated by an arrow). The FPR2 specific inhibitor PBP10 (1 µM) was added 1 min prior to PAF stimulation (dashed line) and the release of superoxide anions was recorded continuously. The PAF responses induced in naïve cells (solid line), as well as in F2Pal10-desensitized cells receiving no PBP10 (dotted line), are shown for comparison. Abscissa: Time of study (min); ordinate: Superoxide production (Mcpm). C. Effect of calyculin A on receptor cross-talk induced FPR2 reactivation. Cells desensitized with F2Pal10 (F2Pal10des.) were incubated with the phosphatase inhibitor calyculin A (60 nM; solid line) or buffer as control (dashed line) for 10 min at 37°C prior to PAF stimulation (100 nM). The release of superoxide anions was recorded continuously. Abscissa: Time of study (min); ordinate: Superoxide production (Mcpm). […] Abscissa: Time of study (min); ordinate: Superoxide production (Mcpm). […] The results are given as peak values of superoxide production following addition of ATPγS (mean+SEM; n = 3).
Figure 4 More pronounced reactivation was induced by PAF in neutrophils desensitized by the pepducin F2Pal10. […] The results are given as peak values of superoxide production from three separate experiments for the first stimulation with FPR2 agonists (mean+SEM, n = 3). […]

[2] = system: neutrophils; assay: Calcium mobilization in neutrophils; format: cell-based, human; conditions: WKYMVM 100 nM or F2Pal10 500 nM
Method: Neutrophils or transfected HL-60 cells at a density of 5×10^7 cells/ml in KRG containing 0.1% BSA were loaded with 5 µM FURA 2-AM for 30 minutes in the dark at room temperature. The cells were then diluted 1/2 in RPMI 1640 culture medium without phenol red (PAA Laboratories GmbH, Pasching, Austria) and centrifuged. Finally, the cells were washed once with KRG and resuspended in the same buffer at a density of 2×10^7/ml. Calcium measurements were carried out in a PerkinElmer fluorescence spectrophotometer (LC50), with excitation wavelengths of 340 nm and 380 nm, an emission wavelength of 509 nm, and slit widths of 5 nm and 10 nm, respectively. The transient rise in intracellular calcium is presented as the ratio of fluorescence intensities (340 nm: 380 nm) detected. The measuring cuvette contained catalase (2000 U) to counteract inactivation of the chemoattractants by the MPO-H2O2-system. […] The relative calcium level was expressed as a ratio between Fluo-3 and Fura Red (FL-1/FL-3) fluorescence over time.
Figure 5 F2Pal10 induces pertussis toxin sensitive superoxide production and triggers mobilization of calcium from intracellular stores. […] Abscissa, time of study (sec); ordinate, fluorescence (arbitrary unit). […]

SMILES: CSCC[C@H](NC(=O)[C@@H](NC(=O)[C@H](CCSC)NC(=O)[C@H](Cc1ccc(O)cc1)NC(=O)[C@H](CCCCN)NC(=O)[C@@H](N)Cc1c[nH]c2ccccc12)C(C)C)C(N)=O [WKYMVM]
- type of agonism, cross-talk reactivation ([1]; PAF- and ATP-induced cross-talk reactivation of desensitized FPR2): partial agonist
- priming of PAF response in desensitized neutrophils ([1]; desensitizing agent F2Pal10 500 nM or WKYMVM 40 nM, PAF 100 nM): primed in their response to PAF
- rise in cytosolic Ca2+ in neutrophils ([2]; Fluo-3/Fura Red, without EGTA): a rise in the cytosolic concentration of Ca^2+ was induced
- rise in cytosolic Ca2+ in neutrophils, with EGTA ([2]; extracellular Ca2+ removed by EGTA (2 mM)): The rise was evident also when extracellular Ca^2+ was removed
